Blank lines part the entries; values can stand above or below the compound they belong to. Activity calls are given as the source filed them. The calls are words filed in the database; no cut-off is given here.
Key:
[1] = target: T1, Ubiquitin carboxyl-terminal hydrolase 21 (Homo sapiens, UniProt Q9UK80); assay: Inhibition of human full length USP21 using Btn-Ahx-PNIRFLD-K(Ubi)-LPQQT-GD-amide as substrate preincubated for 15 to 20 mins followed by substrate addition and measured after 25 mins by HTRF assay
T1 sequence (Q9UK80 whole entry): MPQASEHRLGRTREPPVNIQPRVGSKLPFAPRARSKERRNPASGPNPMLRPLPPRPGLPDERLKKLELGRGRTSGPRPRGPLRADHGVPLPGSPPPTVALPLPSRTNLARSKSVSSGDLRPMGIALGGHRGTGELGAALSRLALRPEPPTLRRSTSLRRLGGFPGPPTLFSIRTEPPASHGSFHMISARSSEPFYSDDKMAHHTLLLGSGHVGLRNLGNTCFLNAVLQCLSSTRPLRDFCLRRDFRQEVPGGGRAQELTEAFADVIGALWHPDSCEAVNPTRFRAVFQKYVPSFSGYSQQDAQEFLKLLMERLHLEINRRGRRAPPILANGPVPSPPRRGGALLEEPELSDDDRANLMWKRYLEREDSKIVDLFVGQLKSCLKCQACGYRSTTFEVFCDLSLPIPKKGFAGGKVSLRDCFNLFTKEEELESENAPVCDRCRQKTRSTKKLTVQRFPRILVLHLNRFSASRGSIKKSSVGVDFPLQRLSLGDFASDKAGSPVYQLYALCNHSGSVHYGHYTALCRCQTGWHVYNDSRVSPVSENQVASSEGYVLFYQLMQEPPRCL

[2] = target: T2, Ubiquitin carboxyl-terminal hydrolase 2 (Homo sapiens, UniProt O75604); assay: Inhibition of human His-tagged USP2 (259 to 605 residues) using ubiquitin rhodamine 110 110 as substrate preincubated for 15 to 20 mins followed by enzyme addition and measured after 25 mins by fluorometric assay
T2 sequence (O75604 whole entry): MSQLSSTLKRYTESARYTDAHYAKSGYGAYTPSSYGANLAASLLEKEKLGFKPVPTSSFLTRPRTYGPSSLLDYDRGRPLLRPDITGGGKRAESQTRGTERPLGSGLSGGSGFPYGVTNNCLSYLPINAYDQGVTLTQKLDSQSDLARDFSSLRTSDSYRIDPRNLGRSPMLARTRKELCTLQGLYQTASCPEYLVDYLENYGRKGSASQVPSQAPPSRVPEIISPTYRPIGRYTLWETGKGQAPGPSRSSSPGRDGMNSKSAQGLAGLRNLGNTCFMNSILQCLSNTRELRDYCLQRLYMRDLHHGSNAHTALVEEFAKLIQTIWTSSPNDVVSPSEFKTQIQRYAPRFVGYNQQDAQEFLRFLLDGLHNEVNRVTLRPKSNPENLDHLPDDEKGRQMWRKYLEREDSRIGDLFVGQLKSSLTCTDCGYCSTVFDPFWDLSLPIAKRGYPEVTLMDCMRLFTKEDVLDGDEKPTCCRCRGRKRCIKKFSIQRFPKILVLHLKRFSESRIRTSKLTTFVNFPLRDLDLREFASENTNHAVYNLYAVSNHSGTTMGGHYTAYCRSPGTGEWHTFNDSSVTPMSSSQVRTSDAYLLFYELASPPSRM

[3] = system: MOLM-13; assay: Antiproliferative activity against human MOLM-13 cells assessed as reduction in cell viability up to 30 uM incubated for 72 hrs by CellTiter-Glo luminescent assay; type: functional, cell-based
[4] = system: A549; assay: Antiproliferative activity against human A549 cells assessed as reduction in cell viability up to 30 uM incubated for 72 hrs by CellTiter-Glo luminescent assay; type: functional, cell-based
[5] = system: Jurkat; assay: Antiproliferative activity against human Jurkat cells assessed as reduction in cell viability up to 30 uM incubated for 72 hrs by CellTiter-Glo luminescent assay; type: functional, cell-based
[6] = system: U2OS; assay: Antiproliferative activity against human U2OS cells assessed as reduction in cell viability up to 30 uM incubated for 72 hrs by CellTiter-Glo luminescent assay; type: functional, cell-based
[7] = system: MDA-MB-231; assay: Antiproliferative activity against human MDA-MB-231 cells assessed as reduction in cell viability up to 30 uM incubated for 72 hrs by CellTiter-Glo luminescent assay; type: functional, cell-based

IC50 [1]: 0.012 µM
Compound: N#Cc1ccc(Cc2nnc(NC(=O)[C@H](NC(=O)C3(C(F)(F)F)CCCCC3)C3CCCC3)s2)cc1

IC50 [2]: 25 µM
Compound: COCC(NC(=O)C1CCCC1)C(=O)Nc1nnc(Cc2ccc([N+](=O)[O-])cc2)s1 (racemic)

Compound: CC(C)C[C@@H](NC(=O)C1(C(F)(F)F)CCCCC1)C(=O)Nc1nnc(Cc2ccc(C#N)cc2)s1
Activity [3]: inactive | Activity [4]: inactive | Activity [5]: inactive | Activity [6]: inactive | Activity [7]: inactive

Reference: ChEMBL document CHEMBL5247643, “Discovery and Characterization of BAY-805, a Potent and Selective Inhibitor of Ubiquitin-Specific Protease USP21” (J Med Chem, 2023)
